How the values were obtained:
SK-HEP1 = experiment: Cytotoxicity against human SKHEP1 cells assessed as reduction in viability; format: functional, cell-based
WRL68 = experiment: Cytotoxicity against human WRL68 cells assessed as reduction in viability; format: cell-based
KB [1] = experiment: Antiproliferative activity against human KB/HeLa cells assessed as reduction in cell viability; format: functional, cell-based
HEp-2 = experiment: Antiproliferative activity against human Hep2 cells by MTT assay; format: functional, cell-based
KB [2] = experiment: Antiproliferative activity against human KB cells assessed as reduction in cell viability; format: functional, cell-based
MDA-MB-231 = experiment: Antitumour activity against human MDA-MB-231 cells xenografted in Nu/Nu mouse at 10 mg/kg, iv for 6 times at 2 days interval; format: functional
HL-60 = experiment: Antiproliferative activity against human HL60 cells assessed as reduction in cell viability after 3 days by trypan blue dye based hemocytometer counting method; format: functional; conditions: HL-60, 72 h
HT-29 [3] = experiment: Antiproliferative activity against human HT-29 cells assessed as reduction in cell viability after 3 days by SRB assay; format: functional, cell-based; conditions: HT-29, 72 h
[4] = Inhibition of chymotrypsin-like proteasome (unknown origin) using Suc-LLVY-AMC as substrate by fluorescence based assay; set-up: species or system Homo sapiens
[5] = molecular target: Tyrosine-protein phosphatase non-receptor type 1 (Homo sapiens, UniProt P18031); experiment: Inhibition of recombinant human PTP1B (1 to 322 residues) expressed in Escherichia coli assessed as reduction in p-nitrophenol formation using p-nitrophenyl phosphate as substrate incubated for 30 mins by spectrophotometric method
Tyrosine-protein phosphatase non-receptor type 1, sequence (P18031 whole entry, the tested form may be a part): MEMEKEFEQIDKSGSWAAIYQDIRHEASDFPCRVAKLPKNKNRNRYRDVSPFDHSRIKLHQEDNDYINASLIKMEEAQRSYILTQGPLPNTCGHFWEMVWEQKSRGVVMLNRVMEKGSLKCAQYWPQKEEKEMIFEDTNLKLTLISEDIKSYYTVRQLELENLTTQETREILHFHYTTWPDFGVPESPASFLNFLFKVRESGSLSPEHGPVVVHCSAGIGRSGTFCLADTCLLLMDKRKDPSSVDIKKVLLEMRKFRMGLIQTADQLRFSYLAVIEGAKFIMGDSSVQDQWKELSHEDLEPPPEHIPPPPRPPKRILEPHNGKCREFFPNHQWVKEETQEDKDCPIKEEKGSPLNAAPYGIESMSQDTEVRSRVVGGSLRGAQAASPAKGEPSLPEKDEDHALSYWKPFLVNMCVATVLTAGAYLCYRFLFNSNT

DU-145 = experiment: Antiproliferative activity against human DU145 cells assessed as reduction in viability after 48 hrs by MTTS assay; format: functional, cell-based; conditions: DU-145, 48 h
HT-29 [6] = experiment: Antiproliferative activity against human HT-29 cells assessed as reduction in cell viability; format: functional, cell-based
OVCAR-3 [7] = experiment: Antiproliferative activity against human OVCAR3 cells assessed as reduction in cell viability; format: functional, cell-based
OVCAR-8 = experiment: Antiproliferative activity against human OVCAR8 cells assessed as reduction in cell viability; format: functional, cell-based
P388 = experiment: Antiproliferative activity against mouse P388 cells assessed as reduction in cell viability; format: functional, cell-based; conditions: read-out: ED50 (the source's name)
[8] = Antiproliferative activity against human U373 cells assessed as reduction in cell viability; format: functional, U-373MG ATCC; conditions: U373 MG, read-out: ED50 (the source's name)
KB-V1 = experiment: Antiproliferative activity against human KBV1 cells assessed as reduction in cell viability; format: functional; conditions: read-out: ED50 (the source's name)
[9] = Antiproliferative activity against human BC1 cells assessed as reduction in cell viability; format: functional; conditions: read-out: ED50 (the source's name)
A-431 = experiment: Antiproliferative activity against human A431 cells assessed as reduction in cell viability; format: functional; conditions: read-out: ED50 (the source's name)
HT = experiment: Antiproliferative activity against human HT cells assessed as reduction in cell viability; format: functional; conditions: read-out: ED50 (the source's name)
Col2 = experiment: Antiproliferative activity against human Col2 cells assessed as reduction in cell viability; format: functional, cell-based
[10] = Toxicity in po dosed mouse; format: organism-based; conditions: in vivo
[11] = Antiproliferative activity against human Ben-Men-1 cells incubated for 72 hrs by resazurin dye based fluorescence assay; format: functional, cell-based
[12] = Antiproliferative activity against mouse Sch10545 cells incubated for 72 hrs by resazurin dye based fluorescence assay; format: functional, cell-based
HeLa = experiment: Antiproliferative activity against human HeLa cells assessed as reduction in cell viability; format: functional, cell-based
OVCAR-3 [13] = experiment: Antiproliferative activity against human OVCAR3 cells assessed as reduction in cell viability after 48 hrs by CCK8 assay; format: functional, cell-based; conditions: OVCAR-3, 48 h
SK-OV-3 = experiment: Antiproliferative activity against human SKOV3 cells assessed as reduction in cell viability after 48 hrs by CCK8 assay; format: functional, cell-based; conditions: SK-OV-3, 48 h

COc1c(O)cc2oc3cc(O)c(CC=C(C)C)c(O)c3c(=O)c2c1CC=C(C)C [MANGOSTIN] gave an IC50 (SK-HEP1) of 19600 nM and an IC50 (WRL68) of 158000 nM.
In the case of CC[C@H](CC[C@@H](C)[C@H]1CC[C@H]2[C@@H]3CC=C4C[C@@H](O)CC[C@]4(C)[C@H]3CC[C@]12C)C(C)C [BETA-SITOSTEROL], the IC50 (KB [1]) is reported as greater than 242000 nM, the IC50 (HEp-2) is reported as 11400 nM and the IC50 (KB [2]) is reported as greater than 10 µg/mL.
In the case of CC(C)=CCC[C@]1(C)C=Cc2c(O)c3c(c(CC=C(C)C)c2O1)O[C@]12C(=C[C@@H]4C[C@H]1C(C)(C)O[C@@]2(C/C=C(/C)C(=O)O)C4=O)C3=O [GAMBOGIC ACID], the “fold change (FC)” value (MDA-MB-231) is reported as 1.31 and the IC50 (HL-60) is reported as 170 nM.
O=C1c2c(O)cc(O)cc2O[C@@H](c2ccc(O)cc2)[C@@H]1c1c(O)cc(O)c2c(=O)cc(-c3ccc(O)c(O)c3)oc12 gave an IC50 (HT-29 [3]) greater than 10000 nM and an IC50 [4] of 1300 nM.
Work on CC(C)=CC[C@]12OC(C)(C)[C@H]3C[C@H](C=C4C(=O)c5c(O)cc(O)cc5O[C@@]431)C2=O [COCHINCHINOXANTHONE] yielded an IC50 [5] of 6600 nM.
With C[C@@H]1C[C@H](O)[C@]2(O)O[C@@H]3C[C@@]4(C=O)[C@@H](CC[C@@H]5[C@@H]4CC[C@]4(C)[C@@H](C6=CC(=O)OC6)CC[C@]54O)C[C@H]3O[C@@H]2O1 [CALOTROPIN] the IC50 (DU-145) was 30 nM.
With COc1cc2c(O[C@@H]3O[C@H](CO)[C@@H]4OC(C)(C)O[C@@H]4[C@H]3O)c3c(c(-c4ccc5c(c4)OCO5)c2cc1OC)C(=O)OC3 the IC50 (HT-29 [6]) was 43 nM, the IC50 (OVCAR-3 [7]) was 4.2 nM and the IC50 (OVCAR-8) was 4 nM.
Compound COc1cc(-c2oc3cc(OC)c(OC)c(O)c3c(=O)c2OC)ccc1O [CHRYSOSPLENOL B] has an EC50 (P388) of 330 to 1560 nM, an EC50 [8] of 330 to 1560 nM and an IC50 (HT-29 [6]) greater than 10000 nM. The EC50 (KB-V1) was 2140 nM, the EC50 [9] was 330 to 1560 nM and the EC50 (KB [1]; read-out: ED50 (the source's name)) was 330 to 1560 nM. For the same compound, the EC50 (A-431) was 330 to 1560 nM, the EC50 (HT) was 330 to 1560 nM and the IC50 (Col2) was greater than 10 µg/mL.
C[C@H]1O[C@@H](O[C@H]2[C@@H](O)C[C@H](O[C@H]3[C@@H](O)C[C@H](O[C@H]4CC[C@@]5(C)[C@H](CC[C@@H]6[C@@H]5CC[C@]5(C)[C@@H](C7=CC(=O)OC7)CC[C@]65O)C4)O[C@@H]3C)O[C@@H]2C)C[C@H](O)[C@@H]1O [DIGITOXIN] showed an LD50 [10] of 10 to 80 mg/kg.
Compound C=C(C)C(=O)O[C@H]1C[C@@]2(C)OC(=CC2=O)/C(CO)=C\[C@H]2OC(=O)C(=C)[C@H]12 [GOIAZENSOLIDE] has an IC50 [11] of 1000 nM and an IC50 [12] of 1000 nM.
With O=c1cc(-c2ccc(O)c(-c3c(O)cc(O)c4c(=O)cc(-c5ccc(O)cc5)oc34)c2)oc2cc(O)cc(O)c12 [AMENTOFLAVONE] the IC50 (HeLa) was greater than 10000 nM.
Compound O=c1c2cc(O)ccc2oc2cccc(O)c12 has an IC50 (OVCAR-3 [13]) greater than 10000 nM and an IC50 (SK-OV-3) greater than 10000 nM.
In the case of C[C@]12CC[C@H]3[C@@H](CC[C@H]4C[C@@H](O)[C@H](O)C[C@@]43C=O)[C@@]1(O)CC[C@@H]2C1=CC(=O)OC1 [CALOTROPAGENIN], the IC50 (DU-145) is reported as 480 nM.
